{"source": "patent US20020025347A1", "about": "“Treatment of diabetic nephropathy and microalbuminuria” (Shiva Biomedical, LLC, priority 1999, published 2002)", "key": {"[1]": {"system": "STZ-induced diabetic rats", "test": "Treatment of STZ-induced diabetic rats with a salt of lithospermic acid", "type": "in vivo, Sprague-Dawley rats", "protocol": "Sprague-Dawley rats (3-4 months of age, 250-300 g) were housed individually in sterile microisolator cages in a Specific Pathogen Free animal care facility. Rats were fed standard Rat chow and water was available ad libitum. Animals were maintained in temperature (25° C.) and humidity (40%) controlled rooms with a 12-h light/12 h dark cycle. Rats were randomly assigned to three experimental groups: Group I, nondiabetic control (n=10), Group II, untreated diabetic (n=10); and Group III, salt of lithospermic acid-treated diabetic (n=10). Insulin dependent diabetes was induced by a single intravenous injection of freshly prepared streptozotocin (STZ) (50 mg/kg in 0.1 M citrate buffer, pH 4.5) (Schmidt, R. E., et al., Diabetes 45(3):284-290 (1996)). A rat was considered diabetic when the nonfasting plasma glucose level was greater than about 17 mmol/L, 3 days following injection of STZ. Eight weeks following the administration of STZ, animals were treated with a salt of lithospermic acid by intramuscularly injections once daily (20 mg salt of lithospermic acid/kg body weight) for 8 weeks. Body weights were recorded weekly before and throughout the treatment period. Twenty-four hour urine and glycosylated hemoglobin levels were determined at 8, 12 and 16 weeks after injection of STZ. Urine samples were centrifuged (3000 rpm for 10 min) and the supernatant analyzed for creatinine and protein levels using standard techniques (Matsuo, Y., et al., Pharmacology 50:1-8 (1995))."}, "protein kinase C (PKC)": {"system": "protein kinase C (PKC)", "test": "High glucose-induced protein kinase C activity in mesangial cells", "type": "cell-based, Murine", "conditions": "MES-13 cells, 30 mM glucose 5 days, then 25 or 50 μg/mL for 24 hours", "protocol": "Murine renal mesangial cells were used in these experiments. The mesangial cells (MES-13) were cloned from transgenic mice. The twenty-fifth passage of the originally plated cells was used in the experiments. MES-13 cells were grown in Dulbecco's Modified Eagle's Medium (DMEM) containing 15% fetal bovine serum (FBS), 1% streptomycin-penicillin mixture, fungizone 0.2 μg/mL, 44 mM NaHCO3 and 14 mM HEPES at 37° C. in a humid atmosphere containing 5% CO2 and 95% air. Subcultures were seeded from confluent stock cultures by trypsinization in Hanks balanced salt solution containing 0.5 mM EDTA and 0.025% trypsin and grown in DMEM containing 15% FBS for 24 hr to near confluence (80%). Near confluent cells were incubated with serum-free DMEM to arrest cell growth and synchronize cell cultures. After 24 hr, the media was changed to serum-free DMEM containing 5.5 mM (normal) or 30 mM (high) glucose and cells cultured for 5 days. […] The amount of PKC in lysates of cells cultured in presence of high glucose (30 mM) and normal glucose (control, 5.5 mM) was determined using a commercially available kit (Upstate Biotechnology, Lake Placid N.Y.). […] Assay squares were placed into vials and radioactivity determined by scintillation counting. PKC activity was expressed as pmol/min/protein. Significant differences between group means were determined using the unpaired or paired Student's t-test."}, "TGF-β1": {"system": "TGF-β1", "test": "High glucose-induced TGF-β1 secretion from mesangial cells (Western blot)", "type": "cell-based, Murine", "conditions": "MES-13 cells, 30 mM glucose, 25 or 50 μg/mL for 24 hours", "protocol": "(§1) Murine renal mesangial cells were used in these experiments. The mesangial cells (MES-13) were cloned from transgenic mice. The twenty-fifth passage of the originally plated cells was used in the experiments. MES-13 cells were grown in Dulbecco's Modified Eagle's Medium (DMEM) containing 15% fetal bovine serum (FBS), 1% streptomycin-penicillin mixture, fungizone 0.2 μg/mL, 44 mM NaHCO3 and 14 mM HEPES at 37° C. in a humid atmosphere containing 5% CO2 and 95% air. Subcultures were seeded from confluent stock cultures by trypsinization in Hanks balanced salt solution containing 0.5 mM EDTA and 0.025% trypsin and grown in DMEM containing 15% FBS for 24 hr to near confluence (80%). Near confluent cells were incubated with serum-free DMEM to arrest cell growth and synchronize cell cultures. After 24 hr, the media was changed to serum-free DMEM containing 5.5 mM (normal) or 30 mM (high) glucose and cells cultured for 5 days. Cells were then incubated with a salt of lithospermic acid at 25 μg/mL or 50 μg/mL for 24 hours. […] Protein concentration in cell lysate and culture media samples was determined by the method of Lowry with BSA as a standard (Lowry, O. H., et al., J. Biol. Chem. 193:265-275 (1951)). […] After washing, the antigen-antibody complexes were detected by enhanced chemiluminesence (Amersham International, England) and quantitated densitometry."}, "fibronectin": {"system": "fibronectin", "test": "High glucose-induced fibronectin synthesis and secretion from mesangial cells (Western blot)", "type": "cell-based, Murine", "conditions": "MES-13 cells, 30 mM glucose, 50 μg/mL", "protocol": "as §1"}, "ERK2": {"system": "ERK2", "test": "High glucose-induced phosphorylation of ERK in mesangial cells (Western blot)", "type": "cell-based, Murine", "conditions": "MES-13 cells, 30 mM glucose, 50 μg/mL", "protocol": "as §1"}, "MEK2": {"system": "MEK2", "test": "High glucose-induced phosphorylation of MEK in mesangial cells (Western blot)", "type": "cell-based, Murine", "conditions": "MES-13 cells", "protocol": "as §1"}, "[2]": {"conditions": "treated diabetic rats, 20 mg/kg intramuscularly once daily for 8 weeks"}}, "note": "“Also recorded” adds a separate entry of the source. Counter-ions that a name gives are not always drawn."}
{"smiles": "O=C(/C=C/c1ccc(O)c2c1[C@H](C(=O)O)[C@@H](c1ccc(O)c(O)c1)O2)O[C@H](Cc1ccc(O)c(O)c1)C(=O)O", "note": "[salt of lithospermic acid]", "values": [{"measurement": "effect on blood glucose levels in diabetic rats", "setting": "[1]; 20 mg/kg intramuscularly once daily for 8 weeks", "result": "did not significantly lower blood glucose levels"}, {"measurement": "urinary protein levels (FIG. 1)", "setting": "[1]; 20 mg/kg intramuscularly once daily for 8 weeks, started 8 weeks after STZ, compared to untreated diabetic and nondiabetic control rats", "result": "significantly (p<0.001) lowered urinary protein levels; also recorded: approached the levels observed in control, nondiabetic rats"}, {"measurement": "HCT", "setting": "[1]; treated diabetic rats", "result": "37.44 ± 3.13", "unit": "%"}, {"measurement": "Hb", "setting": "[1]; treated diabetic rats", "result": "14.44 ± 0.87", "unit": "g/dL"}, {"measurement": "MCH", "setting": "[1]; treated diabetic rats", "result": "21.13 ± 0.69", "unit": "pg"}, {"measurement": "WBC", "setting": "[1]; treated diabetic rats", "result": "11.95 ± 4.66 × 10(3)"}, {"measurement": "Albumin", "setting": "[1]; [2]", "result": "1.75 ± 0.31", "unit": "g/dL"}, {"measurement": "BUN", "setting": "[1]; [2]", "result": "28.1 ± 5.32", "unit": "mg/dL"}, {"measurement": "Bilirubin", "setting": "[1]; [2]", "result": "1.14 ± 1.10", "unit": "mg/dL"}, {"measurement": "Cholesterol", "setting": "[1]; [2]", "result": "47 ± 7.35", "unit": "mg/dL"}, {"measurement": "Cl", "setting": "[1]; [2]", "result": "101.5 ± 2.65", "unit": "mmol/L"}, {"measurement": "Creatinine", "setting": "[1]; [2]", "result": "0.6 ± 0.12", "unit": "mg/dL"}, {"measurement": "D. Bil", "setting": "[1]; [2]", "result": "0.67 ± 0.7", "unit": "mg/dL"}, {"measurement": "GOT", "setting": "[1]; [2]", "result": "239 ± 157", "unit": "U/L"}, {"measurement": "GPT", "setting": "[1]; [2]", "result": "102.75 ± 73.74", "unit": "U/L"}, {"measurement": "Glucose", "setting": "[1]; [2]", "result": "508.5 ± 160.4", "unit": "mg/dL"}, {"measurement": "K", "setting": "[1]; [2]", "result": "19.53 ± 12.8", "unit": "mmol/L"}, {"measurement": "Na", "setting": "[1]; [2]", "result": "130.3 ± 6.24", "unit": "mmol/L"}, {"measurement": "Serum Protein", "setting": "[1]; [2]", "result": "6.28 ± 0.54", "unit": "g/dL"}, {"measurement": "Uric Acid", "setting": "[1]; [2]", "result": "1.6 ± 1.07", "unit": "mg/dL"}, {"measurement": "r-GTP", "setting": "[1]; [2]", "result": "2.75 ± 2.75", "unit": "U/L"}, {"measurement": "HbAlc", "setting": "[1]; treated diabetic rats, p < 0.01 vs. control", "result": "8.59 ± 1.59", "unit": "%"}, {"measurement": "PKC activity in high glucose (FIG. 2)", "setting": "protein kinase C (PKC)", "result": "decreased PKC activity"}, {"measurement": "TGF-β1 secretion in high glucose (FIG. 3)", "setting": "TGF-β1", "result": "decreased high glucose-induced TGF-β1 secretion"}, {"measurement": "fibronectin levels in high glucose (FIG. 4)", "setting": "fibronectin", "result": "decreased fibronectin levels to about that of control levels"}, {"measurement": "phosphorylated ERK2 in high glucose (FIG. 5)", "setting": "ERK2", "result": "decrease in phosphorylated ERK2 to about control levels"}, {"measurement": "phosphorylated MEK2 (MEK P) in high glucose (FIG. 7)", "setting": "MEK2; high glucose, 50 μg/mL", "result": "approached control levels"}, {"measurement": "total amount of MEK2 (MEK2-T, phosphorylated and nonphosphorylated) (FIG. 8)", "setting": "MEK2; regardless of glucose concentration or treatment", "result": "remained constant"}]}
